Data: patent publication US10058524B2, “Methods for improving joint function” (Tersus Life Sciences, LLC, priority 2015, dated 2018)

Assays:
Assay type in all cases: in vivo
Human Subjects [1] = assay: Knee range of motion by goniometry (extension and flexion)
Text: (§1) Goniometry was used to measure knee range of motion. To measure Knee Extension, subjects were instructed to extend the left or right knee to full extension without changing the position of their pelvis and lumbar spine. An inclinometer was placed along the subject's shin so as to document the range of motion in degrees. To measure Knee Flexion, subjects were asked to lie on their stomach with their shins off the end of the table, and were instructed to fully extend their knees. The subject was then asked to actively flex his/her knee to a full flexion position. The following scales and questionnaires: Stanford Exercise Behavior Scale—Stretching and Aerobics, Knee-related QOL subscale of KOOS Knee Survey, SF-12, and Knee Discomfort Improvement Scale were completed by the subjects at the initial screening.
(§2) Subjects who met all of the study inclusion criteria and none of the exclusion criteria were randomly assigned to either the C16:1n7-palmitoleate-treatment or placebo groups. The C16:1n7-palmitoleate composition included palmitoleic acid, gelatin, glycerin and purified water whereas the placebo included medium chain triglycerides. […] The subjects and the clinical staff were unaware of what group a particular subject was allocated to. Baseline assessments for joint pain and knee range of motion in a subject were obtained via the 6-Minute Timed Walk, Stepmill Protocol, and goniometry. At the end of the visit, subjects were provided with a 7-day supply of the C16:1n7-palmitoleate composition or placebo and daily dosing diaries. Subjects were instructed to ingest a single capsule of the C16:1n7-palmitoleate composition or the placebo per day.
(§3) Subjects returned to the clinic at Visit 3 (Day 7) for repeat assessments of joint pain, range of motion, activity levels and health-related quality of life scores. After the performance-based physical functioning measures were evaluated, the subjects were provided with a 23-day supply of the C16:1n7-palmitoleate composition or placebo. Subjects returned to the clinic at Visit 4 (Day 30), which marked the end of the study, for reevaluation of the performance-based physical functioning measures.
Goniometric measurements, which record the active and passive range of motion in joints like the knee, are often used in evaluating joint function.

Human Subjects [2] = assay: Stanford Exercise Behavior Scale - Stretching and Aerobics
Text: as §1
Experimental endpoints included Change in Time of Onset and Offset of Discomfort, Changes in 6-Minute Timed Walk, Change in Knee Range of Motion as measured by goniometry including Left and Right Knee Extension and Left and Right Knee Flexion. Stanford Exercise Scale—Stretching and Aerobics was used to measure the effect of the C16:1n7-palmitoleate composition on physical activity levels.

Human Subjects [3] = assay: Knee Discomfort Improvement Scale; conditions: group n=20
Text: as §1
Knee Discomfort Improvement Scale refers to the response to the question “Is your overall knee discomfort improving?”, rated using a 3-point scale where zero is “Not at All”, 1 is “Moderately” and 2 is “Definitely”.

Human Subjects [4] = assay: Stepmill Protocol: time of onset and offset of knee discomfort
Protocol: The study duration was thirty-seven (37) days with a total of 4 visits per subject. The initial screening visit (Visit 1) occurred 7 days prior to the initiation of the study (Day −7). Subjects arrived in the clinic having fasted for 10 hours in preparation for Visit 1. Subjects underwent the informed consent process and were screened for the presence of all the inclusion criteria and the absence of all the exclusion criteria. The screening process also included taking a detailed medical history, recording prior and concomitant medications, performing a physical examination, and documenting vital signs, and anthropometric measures. To determine eligibility, subjects continuously used the Stepmill at a set rate for 10 minutes until they complained of knee discomfort (in at least one knee) that scored at least 5 on an 11 point numeric pain rating scale. The time of onset of joint pain was recorded. Subjects were also instructed to inform the clinician when their discomfort began to subside and when their discomfort completely resolved.
Baseline assessments included evaluating the pain or discomfort experienced by subjects during exercise testing. Subjects were instructed to exercise on a StepMill® model 7000PT (StairMaster® Health & Fitness Products, Inc., Kirkland, Wash.) at a set rate (Level 4) for 10 minutes. The following knee discomfort measures were recorded from the beginning of the Stepmill test: (1) time of onset of initial joint pain; (2) time of onset of maximum joint pain; (3) time at which initial improvement in knee joint pain was achieved; and (4) time of complete recovery from knee joint pain. Subjects that reported a discomfort level of 5 on an 11 point (0-10) Likert scale in at least one knee within the 10-minute period were selected. Once the requisite pain level was achieved, the subject was asked to continue stepping for an additional two minutes in order to record the maximum pain level reached before disembarking from the stepmill. Subjects who experienced a pain score of 5 (or greater) within one minute of starting the stress test were excluded.
as §2, §3
The time of onset of discomfort or pain level refers to the time at which the minimum or maximum discomfort or pain level is reached. The time of onset of minimum discomfort or pain level refers to the time at which minimum discomfort or pain level is reached. The time of onset of maximum discomfort or pain level refers to the time at which maximum discomfort or pain level is reached.
As used herein, the time of offset of discomfort is the time at which a level of relief is reached after performing the Stepmill Protocol described herein. […]

Human Subjects [5] = assay: 6-Minute Timed Walk; conditions: between treated and placebo groups, any time point
Protocol: Other performance-based physical functioning measures including the 6-Minute Timed Walk and Knee Range of Motion (ROM) were also performed by the subjects. In the 6-Minute Timed Walk, subjects walked up and down a hallway for 6 minutes and were instructed to walk as rapidly as possible within their comfort zone, and as rapidly as possible without causing themselves any pain.
as §2, with “At the end of the visit, subjects were provided with a 7-day supply of the C16:1n7-palmitoleate composition or placebo and daily dosing diaries. Subjects were instructed to ingest a single capsule of the C16:1n7-palmitoleate composition or the placebo per day.” left out
as §3, with “Subjects returned to the clinic at Visit 4 (Day 30), which marked the end of the study, for reevaluation of the performance-based physical functioning measures.” left out

Human Subjects [6] = assay: SF-12 survey (physical and mental component scores)
Text: as §1
Quality of life (QOL) was assessed using Change in SF-12 and Knee-related QOL subscale of KOOS Knee Survey, and Knee Discomfort Improvement Scale. The SF-12 is a multipurpose short form survey with 12 questions, all selected from the SF-36 Health Survey. The questions were combined, scored, and weighted to create two scales that provide glimpses into the subject's mental and physical functioning and overall health-related-quality of life. Physical and Mental Health Component Summary Scores were computed using the scores of the twelve questions and a range from 0 to 100, where zero corresponds to the lowest level of health measured by the scales and 100 corresponds to the highest level of health.

Human Subjects [7] = assay: Knee-related QOL subscale of KOOS Knee Survey
Text: as §1
Knee injury and Osteoarthritis Outcome Score (KOOS) is an instrument to assess the patients' opinion about their knee and knee-associated problems. For this study, only the Knee Related QOL subscale was used.

[8] = between treated and placebo groups, any time point
[9] = within-group, baseline to any time point

SMILES: CCCCCC/C=C\CCCCCCCC(=O)O [C16:1n7-palmitoleate, palmitoleic acid]
- change in left knee flexion (Human Subjects [1]; after 7 days of supplementation): apparent
- right knee extension (Human Subjects [1]; [8]): no statistically significant difference
- right knee flexion (Human Subjects [1]; [8]): no statistically significant difference
- left knee flexion (Human Subjects [1]; within-group, 30 days vs Day 0, p=0.015): significant increase
- right knee flexion (Human Subjects [1]; within-group, 30 days vs Day 0, p=0.019): significant increase
- left knee extension (Human Subjects [1]; within-group, 30 days vs Day 0, p=0.028): significant increase
- right knee extension (Human Subjects [1]; [9]): no statistically significant changes
- average minutes per week for aerobic exercise (Human Subjects [2]; [8]): no statistically significant differences
- average minutes per week for stretching exercise (Human Subjects [2]; [8]): no statistically significant differences
- time spent stretching (Human Subjects [2]; within-group, after 30 days of supplementation, p=0.066): non-statistically significant yet clinically significant increase
- average minutes per week for aerobic exercise (Human Subjects [2]; [9]): no statistically significant changes
- number of subjects that reported moderate improvements in knee discomfort (Human Subjects [3]; Day 0 (baseline)): 4
- number of subjects that reported definite improvements in knee discomfort (Human Subjects [3]; Day 7): 2
- number of subjects that reported moderate improvements in knee discomfort (Human Subjects [3]; Day 7): 10
- number of subjects that reported moderate improvements in knee discomfort (Human Subjects [3]; Day 30): 8 subjects
- number of subjects that reported definite improvements in knee discomfort (Human Subjects [3]; Day 30, comparable to placebo): 8
- average time to report maximum discomfort or pain level (Human Subjects [4]; after 30 days, placebo 5.43±2.53 minutes): 6.89 ± 2.59 min
- time of onset of minimum discomfort or pain level (Human Subjects [4]; between treated and placebo groups): no statistically significant difference
- time of offset of maximum discomfort (Human Subjects [4]; [8]): no statistically significant difference
- time of offset of minimum discomfort (Human Subjects [4]; [8]): no statistically significant difference
- changes in the time of onset of maximum discomfort from Day 0 to Day 30 (Human Subjects [4]; between treated and placebo groups, p=0.007): statistically significant difference
- time to reach maximum discomfort or pain level (Human Subjects [4]; between treated and placebo groups, treated taking more time): significantly different
- time of onset of minimum discomfort or pain level (Human Subjects [4]; within-group, 7 days vs Day 0, p=0.013, one capsule per day): statistically significant increase
- time of onset of minimum discomfort or pain level (Human Subjects [4]; within-group, 30 days vs Day 0, p=0.005, one capsule per day): statistically significant increase
- time of onset of maximum discomfort (Human Subjects [4]; within-group, 30 days vs Day 0, p=0.012): significantly increased
- time of offset of maximum discomfort (Human Subjects [4]; within-group, 30 days vs Day 0, p=0.014): decrease
- time of minimum offset of discomfort (Human Subjects [4]; [9]): no statistically significant changes
- distance covered during the 6-minute timed walk (Human Subjects [5]): no statistically significant difference
- mental component score of the SF-12 survey (Human Subjects [6]; [8]): no statistically significant differences
- physical component score of the SF-12 survey (Human Subjects [6]; [8]): no statistically significant differences
- increase in the physical component score of the SF-12 survey (Human Subjects [6]; within-group, 30 days vs Day 0, p=0.031): 8.93%
- mental component score of the SF-12 survey (Human Subjects [6]; [9]): no statistically significant changes
- knee-related quality of life scores (Human Subjects [7]; [8]): no statistically significant differences
- knee-related quality of life scores (Human Subjects [7]; within-group, Day 7 vs Day 0, p=0.002): increase
- knee-related quality of life scores (Human Subjects [7]; within-group, Day 30 vs Day 0, p<0.001): increase
